Reference: PubChem BioAssay (NCI)
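Dose response: 5 concentrations. Exposure: 48 h. Format: 96-well plates. Endpoint: linear interpolation; highest concentration if not reached. The concentration for full growth arrest is given as TGI.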

Assays:
Test in all cases: inhibition of tumour cell growth, NCI panel, 48 h
UO-31 renal = tested on: UO-31 renal
OVCAR-3 ovarian = tested on: OVCAR-3 ovarian
SK-MEL-5 melanoma = tested on: SK-MEL-5 melanoma
K-562 leukemia = tested on: K-562 leukemia
A498 renal = tested on: A498 renal
LOX IMVI melanoma = tested on: LOX IMVI melanoma
UACC-257 melanoma = tested on: UACC-257 melanoma
SW-620 colon = tested on: SW-620 colon
HCT-15 colon = tested on: HCT-15 colon
OVCAR-8 ovarian = tested on: OVCAR-8 ovarian
M14 melanoma = tested on: M14 melanoma
HL-60(TB) leukemia = tested on: HL-60(TB) leukemia
A549 NSCLC = tested on: A549 NSCLC
SK-MEL-28 melanoma = tested on: SK-MEL-28 melanoma
CCRF-CEM leukemia = tested on: CCRF-CEM leukemia
786-0 renal = tested on: 786-0 renal
SR leukemia = tested on: SR leukemia
MCF7 breast = tested on: MCF7 breast
BT-549 breast = tested on: BT-549 breast
MDA-MB-435 = tested on: MDA-MB-435

Compound | TGI (UO-31 renal) [µM] | TGI (OVCAR-3 ovarian) [µM] | TGI (SK-MEL-5 melanoma) [µM] | TGI (K-562 leukemia) [µM] | TGI (A498 renal) [µM] | TGI (LOX IMVI melanoma) [µM] | TGI (UACC-257 melanoma) [µM] | TGI (SW-620 colon) [µM] | TGI (HCT-15 colon) [µM] | TGI (OVCAR-8 ovarian) [µM] | TGI (M14 melanoma) [µM] | TGI (HL-60(TB) leukemia) [µM] | TGI (A549 NSCLC) [µM] | TGI (SK-MEL-28 melanoma) [µM] | TGI (CCRF-CEM leukemia) [µM] | TGI (786-0 renal) [µM] | TGI (SR leukemia) [µM] | TGI (MCF7 breast) [µM] | TGI (BT-549 breast) [µM] | TGI (MDA-MB-435) [µM]
Cc1nc(C(N)=S)sc1C(=O)CC(=O)C(=O)Nc1ccccc1[N+](=O)[O-] | > 100 | > 100 | > 100 | > 100 | > 100 | > 100 | > 100 | > 100 | > 100 | > 100 | > 100 | > 100 | > 100 | > 100 | > 100 | > 100 | > 100 | – | – | –
COC(=O)c1ccc(NC(=O)O/N=C(\Cl)C(C)C)cc1 | 28.7 | 4.17 | 16.1 | – | 37.6 | 4.02 | 28.6 | 3.77 | 3.49 | 32.5 | 12 | 3.66 | 43.2 | 10.1 | – | 4.35 | – | 19.1 | 8.94 | 25.5
CN=c1c2c(c3[nH]c4ccccc4c4cnc1c34)NCCC2=O | > 10 | > 10 | > 10 | > 10 | > 10 | – | > 10 | > 10 | > 10 | > 10 | > 10 | – | > 10 | > 10 | > 10 | > 10 | – | > 10 | > 10 | > 10
COc1cccc(C2c3cc4c(cc3OC(N3CCOCC3)C2C)OCO4)c1OC (stereo unspecified) | 33.6 | 36.7 | 24.5 | 21.1 | – | 12.6 | 48.8 | > 100 | > 100 | > 100 | 29 | – | > 100 | 32 | 28.8 | 52.7 | 24.4 | > 100 | – | 33.8
C=C1C(=O)O[C@@H]2[C@@H]3O[C@@H](C[C@@H]13)[C@](C)(O)CC/C=C(\C)CCC[C@@H]2C | 23 | 25.8 | 30.6 | 85.5 | 26.2 | 19.2 | 27 | 38.4 | 33.4 | 22.2 | 27 | 10.4 | 34.3 | 33.3 | 34.8 | 18.9 | – | 22.1 | 27.5 | 24.9
CC(=O)OC[C@]1(C)CCCC2(C)C1CCC1C=C(C)[C@H]3CCC12C3 (stereo partly specified) | > 100 | > 100 | > 100 | > 100 | – | > 100 | > 100 | > 100 | > 100 | > 100 | > 100 | > 100 | > 100 | > 100 | > 100 | > 100 | > 100 | – | – | –
Clc1ccc(OCc2nnc(CCCCCCCCc3nnc(COc4ccc(Cl)cc4Cl)n3Nc3ccccc3)n2Nc2ccccc2)c(Cl)c1 | 40 | 25.4 | 7.05 | – | 55.6 | 34.3 | 36.2 | > 62.6 | 35 | 50.3 | 29.2 | – | 64.4 | 19 | – | 31.2 | – | 45.6 | 49.7 | 19.5
COC(=O)C1=CSC2(S1)C(C(=O)OC)=CSc1c2ssc1=O (stereo unspecified) | 3.25 | 3.55 | 6.62 | > 23 | 12.5 | 3.35 | 4 | 2.93 | 3.31 | 8.47 | 6.65 | 3.45 | 28.3 | 5.23 | 2.47 | 2.96 | – | 2.89 | 12.9 | 4.34
O=C1c2ccccc2C(=O)N1CC1S(=O)(=O)OCCOS1(=O)=O | > 100 | > 100 | > 100 | > 100 | > 100 | > 100 | > 100 | > 100 | > 100 | > 100 | > 100 | > 100 | > 100 | > 100 | > 100 | > 100 | > 100 | > 100 | – | > 100
Cc1ccccc1NC(=O)c1c(C)oc2c1C(=O)c1ccccc1C2=O | > 100 | > 72.1 | 27.1 | 57.9 | > 100 | 41.3 | 52.7 | > 57.9 | > 74.8 | > 100 | > 69.9 | 56.9 | > 96.1 | > 100 | 48.1 | > 100 | 75.5 | – | – | –
COc1ccc2cc3[nH]c(=O)cc(O)c3cc2c1OC | > 100 | > 100 | – | > 100 | > 100 | > 100 | > 100 | > 100 | > 100 | > 100 | > 100 | > 100 | > 100 | > 100 | > 100 | > 100 | > 100 | – | – | –
Nn1c(CCCCCCCCc2nnc(COc3ccc4ccccc4c3O)n2N)nnc1COc1ccc2ccccc2c1O | > 100 | – | 37.5 | > 100 | > 100 | – | > 100 | > 100 | > 100 | – | 78.4 | – | > 100 | > 100 | – | > 100 | – | > 100 | 69.5 | > 100
CN(C)CC1CN=C(N)O1 (stereo unspecified) | > 100 | > 100 | > 100 | > 100 | > 100 | > 100 | > 100 | > 100 | > 100 | – | > 100 | – | > 100 | > 100 | > 100 | > 100 | – | > 100 | – | > 100
CC(=O)NC1=C(NC(C)(C)C)C(=O)c2ccccc2C1=O | 32.9 | 33.1 | 32.5 | 25.2 | 50.2 | 30.8 | 29.4 | 30.1 | 34.5 | 39.5 | 31.1 | 5.6 | > 100 | 43.1 | 9.28 | 11.6 | – | – | – | –
